The record followed here is patent US5866775A, “Glyphosate-tolerant 5-enolpyruvyl-3-phosphoshikimate synthases” (Monsanto Company, priority 1990, dated 1999).

Assay [1] concerns tobacco plants transformed with wild-type EPSP synthase. Description: Relative effect of glyphosate spray, WT plants. Type of assay: in vivo, Nicotiana tobacam CV H425. The source says:
(§1) A culture of A. tumefaciens cells containing pMON567/pGV3111-SE was co-cultured with leaf disks taken from tobacco plants (Nicotiana tobacam CV H425) as described by Horsch (1985). The Agrobacterium cells inserted the variant EPSP synthase gene into the chromosomes of the plant cells. Plant cells resistant to kanamycin were selected and regenerated into differentiated plants by the procedure of Horsch (1985).
(§2) Progeny of these plants were propagated and grown to a rosette diameter of about 10 cm corresponding to a plant age of about four weeks. The plants were sprayed with glyphosate at levels corresponding to 0.4, 2.0 and 3.6 pounds acid equivalent/acre. The effect of glyphosate on the transformed plants were scored at 7, 14 and 28 days. The effect was translated to a numerical scale of 0-10 in which 0 represents total kill and 10 is the normal, unsprayed plant. […] The values represent the best transformant for both wild-type EPSP synthase and glypho sate-tolerant EPSP synthase genes.

For assay [2], the system named is transgenic canola plants containing pMON10074 (Arabidopsis EPSPS gly-ala(101), ala-thr(192)). The assay can be described thus: Glyphosate spray of canola, pMON10074 plants. As to conditions: 0.56 kg/ha spray; 15 transgenic plants. Format: in vivo. An excerpt:
The resulting plasmid, pMON8324, was partially sequenced to confirm the mutagenesis. […] The pMON10074 plasmid contains the following DNA segments (FIG. 5, clockwise). First, the 0.93 kb fragment isolated from transposon Tn7 which encodes bacterial spectinomycin/streptomycin resistance (Spc/Str), and is a determinant for selection in E. coli and Agrobacterium tumefaciens (Fling et al. 1985). This is joined to the chimeric kanamycin resistance gene engineered for plant expression to allow selection of the transformed tissue. […]
A total of 15 transgenic canola plants containing the pMON10074 construct, and 2 non-transformed controls were sprayed with glyphosate at a commercial rate of 0.56 kg/ha. The effect of glyphosate on both the vegetative and reproductive performance of the sprayed plants was scored at 7, 14 and 28 days after spray. […]

Assay [3] concerns petunia plants transformed with pMON546 (CaMV35S/wild-type petunia EPSP synthase). Description: Plant response to glyphosate spraying, chimeric EPSPS plants. To be noted: 0.8 #/acre acid equivalent (0.897 kg/hectare), isopropylamine salt, spray. Type of assay: in vivo. The source says:
Transformed petunia plants were produced by regeneration from the above-described transformed leaf disks by the procedure described by Horsch, et al. (1985). The transformed plants obtained contained the pMON546 vector, described hereinabove, which contains the CaMV35S promoter fused to the wild-type petunia EPSP synthase gene.
Four individual representative transgenic seedlings were selected, grown and tested in the testing procedure described below, along with four individual non-transformed (wild-type) petunia seedlings.
The plants were grown in a growth medium in a growth chamber at 26° C. with 12 hours of light per day. The plants were fertilized weekly with a soluble fertilizer and watered as needed. The plants were sprayed at a uniform and reproducible delivery rate of herbicide by use of an automated track sprayer. The glyphosate solution used was measured as pounds of glyphosate acid equivalents per acre, mixed as the glyphosate isopropylamine salt, with an ionic surfactant.
Four individual wild-type (non-transformed) petunia plants were selected for use as control plants. Four individual transformed plants containing the pMON546 vector were selected by kanamycin resistance as described by Horsch, et al. (1985). […]

Assay [4] concerns tobacco plants transformed with glyphosate-tolerant petunia EPSP synthase (pMON567). Description: Relative effect of glyphosate spray, GT plants. Format: in vivo, Nicotiana tobacam CV H425.
Text: as §1, §2

Where [5] appears, read: 0.4 pounds/acre (0.448 kg/hectare), day 7, best transformant.
Where [6] appears, read: 0.4 pounds/acre (0.448 kg/hectare), day 14, best transformant.
[7] abbreviates: 0.4 pounds/acre (0.448 kg/hectare), day 28, best transformant.
The mark [8] stands for this setting: 2.0 pounds/acre (2.242 kg/hectare), day 7, best transformant.
Setting [9] is: 2.0 pounds/acre (2.242 kg/hectare), day 14, best transformant.
[10] abbreviates: 2.0 pounds/acre (2.242 kg/hectare), day 28, best transformant.
Setting [11] is: 3.6 pounds/acre (4.035 kg/hectare), day 7, best transformant.
Where [12] appears, read: 3.6 pounds/acre (4.035 kg/hectare), day 14, best transformant.
Where [13] appears, read: 3.6 pounds/acre (4.035 kg/hectare), day 28, best transformant.

As to `O=C(O)CNCP(=O)(O)O` [glyphosate, N-phosphonomethylglycine], the “Relative Effect of Glyphosate (0 total kill, 10 no effect)” value in assay [1] (setting [5]) was 6.0; in assay [1] (setting [6]), 7.0; in assay [1] (setting [7]), 9.0; in assay [1] (setting [8]), 5.0; in assay [1] (setting [9]) it was 1.8; in assay [1] (setting [10]) it was 0.8. Besides, the “Relative Effect of Glyphosate (0 total kill, 10 no effect)” value was 5.0 in assay [1] (setting [11]); 1.7 in assay [1] (setting [12]); 0.8 in assay [1] (setting [13]); 8.0 in assay [4] (setting [5]); 8.0 in assay [4] (setting [6]); 9.0 in assay [4] (setting [7]). The “Relative Effect of Glyphosate (0 total kill, 10 no effect)” value in assay [4] (setting [8]) worked out at 8.0; in assay [4] (setting [9]), 8.3; in assay [4] (setting [10]), 7.0; in assay [4] (setting [11]) it was 5.0; in assay [4] (setting [12]), 7.4; in assay [4] (setting [13]), 7.0. The “reproductive score (scale 0-10, 0 total kill, 10 normal unsprayed plant)” value in assay [2] is reported as 7 out of 15 had reproductive scores greater than 8 with 3 of them scoring 10. The “vegetative score (scale 0-10, 0 total kill, 10 normal unsprayed plant)” value in assay [2] is reported as 6 out of 15 plants having vegetative scores greater than 8, with 1 scoring a 10. Further, the “Visual Appearance” value in assay [3] is “growing well”.
